Laboratory results as given in patent US20210069295A1, “GALECTINS CONTROL MTOR IN RESPONSE TO ENDOMEMBRANE DAMAGE AND PROVIDE A MECHANISM AND TARGET FOR THE TREATMENT OF AUTOPHAGY-RELATED DISEASES” (STC. UNM, priority 2017, published 2021).
Peptide text beside a SMILES is read from it.

Tested on: mTOR, Raptor, RagA, p14
Experiment: APEX2 proximity biotinylation with streptavidin enrichment and immunoblotting in HEK293T cells
Assay type: cell-based
Conditions: for mTOR, Raptor and RagA found in the proximity of the galectin: APEX2-galectin fusions
Protocol: (A) Analysis of the puncta formation of galectins in response to GPN. HeLa cells overexpressing YFP-fused with the indicated galectins were treated with 100 μM GPN or without (Ctrl) in full medium for 1 h and galectin puncta were quantified by HC. […] White masks, algorithm defined cell boundaries (primary objects); green masks, computer-identified galectins puncta (target objects). Data, means±SEM, n≥3 independent experiments (500 primary objects counted per well; ≥5 wells/sample per each experiment); *p<0.05, **p<0.01, † p≥0.05, ANOVA. (B) Immunoprecipitation analysis of the interactions between galectins and mTOR or RagA GTPase. HEK293T cells overexpressing FLAG-tagged galectins were subjected to anti-FLAG immunoprecipitation followed by immunoblotting for endogenous mTOR or RagA. (C) Immunoprecipitation analysis of interactions between Gal8 and mTOR protein complexes in response to GPN treatment. THP-1 cells not treated or treated with 100 μM GPN in full medium for 1 h were subjected to immunoprecipitation with anti-Gal8 antibody, followed by immunoblotting for endogenous RagA, p14, mTOR or Raptor. (D) Analysis of the proximity of Gal8 to mTOR and other proteins in mTOR complexes in response to GPN. Biotinylated proteins from HEK293T cell expressing APEX2-vector or APEX2-Gal8, after GPN and biotin phenol (BP) treatment were affinity-enriched by binding to streptavidin-beads, and samples were analyzed by immunoblotting analysis for endogenous RagA, p14, mTOR or Raptor. Data, means±SEM, (n=3), **p<0.01, ANOVA. (E) Immunoprecipitation analysis of the interactions between Gal8 and RagA GTPase and its mutants. Lysates of HEK293T cells overexpressing FLAG-Gal8 and HA-tagged RagA proteins (RagAWT, RagAT21L or RagAQ66L) were subjected to anti-FLAG immunoprecipitation, followed by immunoblotting for HA-tagged RagA proteins. (F) Immunoprecipitation analysis of the interactions between Gal8 and RagC GTPase and its mutants. HEK293T cells overexpressing FLAG-Gal8 and HA-tagged RagC proteins (RagCWT, RagCS75L or RagCQ120L) lysates were subjected to anti-FLAG immunoprecipitation, followed by immunoblotting for HA-tagged RagC proteins.
HEK293T cells transfected with pJJiaDEST-APEX2 or pJJiaDEST-APEX2-Gal8 were incubated with 100 μM GPN (Cayman Chemicals) in full medium for 1 h (confluence of cells remained at 70-80%). Cells were next incubated in 500 μM biotin-phenol (AdipoGen) in full medium for the last 30 min of GPN incubation. A 1 min pulse with 1 mM H2O2 at room temperature was stopped with quenching buffer (10 mM sodium ascorbate, 10 mM sodium azide and 5 mM Trolox in Dulbecco's Phosphate Buffered Saline (DPBS)). All samples were washed twice with quenching buffer, and twice with DPBS.
For immunoblotting analysis, cell pellets were lysed with 500 μL ice-cold RIPA lysis buffer (ThermoFisher Scientific) with protease inhibitor cocktail (Roche), 1 mM PMSF (sigma), 10 mM sodium ascorbate, 10 mM sodium azide and 5 mM Trolox, gently pipetted and then the incubated for 30 min. The lysates were clarified by centrifugation at 13,000 rpm for 5 min, followed by measuring protein concentrations using a Pierce BCA Protein Assay kit, with freshly made bovine serum albumin (BSA) solutions as standards. Streptavidin-coated magnetic beads (ThermoFisher Scientific) were washed with RIPA lysis buffer. 3 mg of each sample was mixed with 100 μL of streptavidin beads. […] 15 μL of each sample was separated by SDS-PAGE and analyzed by Western blot using indicated antibodies.

`NCC(=O)N[C@@H](Cc1ccccc1)C(=O)Nc1ccc2ccccc2c1` [GPN, glycyl-L-phenylalanine 2-naphththylamide] (HELM PEPTIDE1{G.F.[c1ccc2cc(N[*:1])ccc2c1]}$$$$V2.0) was tested, and the “proximity of Gal8 to Ragulator (LAMTOR2/p14) and RagA” value (APEX2-Gal8 HEK293T, GPN) was “increased proximity” and the “proximity of Gal8 to mTOR and Raptor” value (APEX2-Gal8 HEK293T, GPN) was “decreased proximity”.

With “Gal8: protein of the galectin family encoded by the gene LGALS8; beta-galactoside-binding lectin” the “mTOR, Raptor and RagA found in the proximity of the galectin” value was “in the proximity”.

For “Gal9: beta-galactoside-binding lectin protein of the galectin family”, the “mTOR, Raptor and RagA found in the proximity of the galectin” value was “not in the proximity”.
